From patent US20240368065A1 (HELMHOLTZ-ZENTRUM FÜR INFEKTIONSFORSCHUNG GMBH, priority 2021, published 2024)

What was measured:
purified hACOD1 = molecular target: T1, purified hACOD1 (Homo sapiens, UniProt A6NK06); assay: hACOD1 enzyme activity in vitro assay, competitive inhibition; assay type: biochemical; conditions: purified hACOD1, substrate cis-aconitate, competitive inhibition fit, pH 6.5, 37° C.; read-out: Inhibition constant (Ki)
T1 construct: made in house
T1 sequence (A6NK06 1-481): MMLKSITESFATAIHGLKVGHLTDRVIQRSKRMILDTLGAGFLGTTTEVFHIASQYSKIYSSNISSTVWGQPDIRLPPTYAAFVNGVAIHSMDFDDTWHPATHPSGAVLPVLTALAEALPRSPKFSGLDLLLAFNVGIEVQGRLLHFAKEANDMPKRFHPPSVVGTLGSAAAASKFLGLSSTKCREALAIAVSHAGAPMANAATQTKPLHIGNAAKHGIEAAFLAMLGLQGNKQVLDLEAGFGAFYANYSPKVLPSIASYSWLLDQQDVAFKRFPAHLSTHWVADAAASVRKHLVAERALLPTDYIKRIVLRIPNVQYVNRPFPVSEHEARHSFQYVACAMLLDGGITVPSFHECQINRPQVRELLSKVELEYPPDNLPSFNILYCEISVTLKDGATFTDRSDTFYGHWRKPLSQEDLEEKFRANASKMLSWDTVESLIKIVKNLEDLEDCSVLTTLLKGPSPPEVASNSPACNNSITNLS
Procedure: The activity of purified hACOD1 was measured in the presence of increasing concentrations of substrate and the five inhibitors. The data were globally fitted to the Michaelis-Menten equation for competitive inhibition.
The activity of purified hACOD1 was measured in the presence of increasing concentrations of substrate and the five inhibitors. The data was globally fitted to the Michaelis-Menten equation for competitive inhibition.
The compounds were dissolved in water, neutralized with NaOH and stored at −20° C. For the assay, 125 μL 0.2 M sodium phosphate buffer, pH 6.5, was mixed on ice with 5 μL enzyme, 10 μl inhibitor (or 10 μl water) and 10 μL substrate (cis-aconitic acid). The following combinations of enzyme amount and substrate concentration were used for CA: 2 μg enzyme and 0.1 mM substrate, 2 μg and 0.3 mM, 3 […] and 1 mM, 5 μg and 3.0/10.0 mM. For the other inhibitors, 2 μg enzyme and 0.1/0.2/0.5 mM substrate, 3 μg and 1.0/2.0 mM, 5 μg and 5.0/10.0 mM. Incubation for 10 min at 37° C. was immediately followed by heat inactivation at 95° C. for 3 min. Protein precipitate was pelleted by centrifugation for 1 h. Supernatants were acidified with 100 μL 100 mM H3PO4.

[1] = system: mitochondrial ROS in NRF2−/− human vascular endothelial cells; assay: Mitochondrial ROS in human vascular endothelial cells infected with human coronavirus 229E (flow cytometry); assay type: cell-based; conditions: NRF2−/− cells infected with human coronavirus 229E, 24 h after infection, co-incubation
Procedure: FIG. 10: (Z)-2-Ethylbut-2-enedioic acid maintains anti-oxidative properties. Wild-type or NRF2−/−human vascular endothelial cells were infected with human coronavirus 229E (a low pathogenic, seasonal strain), and mitochondrial ROS levels were measured by flow cytometry 24 h after infection.
Maintenance of anti-ROS activity of (Z)-2-ethylbut-2-enedioic acid (“ethylcitraconic acid”; Formula VIII) is shown in a model of infection of cells by a human coronavirus 229E, a low pathogenic CoV strain. Despite the methylation of CA evident in Formel VIII (a methylation that could theoretically lead to loss of electrophilicity), the compound (Z)-2-Ethylbut-2-enedioic acid maintains anti-oxidative properties. Wild-type or NRF2−/−human vascular endothelial cells were infected with human coronavirus 229E (a low pathogenic, seasonal strain), and mitochondrial ROS levels were measured by flow cytometry 24 h after infection.

ACOD1 = molecular target: T2, ACOD1 (Homo sapiens, UniProt A6NK06); assay: Cellular ACOD1 inhibition: intracellular itaconate in PMA-differentiated THP1 stimulated with LPS/IFNγ (HPLC-MS/MS); assay type: cell-based; conditions: compared with citraconic acid
T2 construct: THP1 were differentiated with PMA and then stimulated with LPS/IFNγ for 24 hours; endogenous in cells; host or cells: THP1 (PMA-differentiated, LPS/IFNγ-stimulated)
T2 sequence (A6NK06 1-481): T1 sequence (A6NK06 1-481)
Procedure: FIG. 9: Ethyl homologue of the methyl group of citraconate enhances ACOD1 inhibition in a cellular assay. […] ACOD1 activity was assessed by measuring intracellular itaconate concentrations by HPLC-MS/MS as described in (Winterhoff,
Chen et al Metabolites 2021). IC50=inhibitory concentration 50%; CC50 =cytotoxic concentration 50%; SI=selectivity index=CC50/IC50.
Methylation of the […] of citraconate thus enhances ACOD1 inhibition in a cellular assay. […] ACOD1 activity was assessed by measuring intracellular itaconate concentrations by HPLC-MS/MS as described in Winterhoff, Chen et al (Metabolites 2021).

[2] = system: reactive oxygen species (ROS) in dTHP1 cells; assay: Mitochondrial ROS in influenza A virus-infected dTHP1 cells (MitoSox Red, flow cytometry); assay type: cell-based, human; conditions: dTHP1 infected with influenza A virus, 10 mM compound, 12 h after infection
Procedure: dTHP1 Cells were seeded at a density of 2×10^5 cells per well in a 12-well plate and infected with influenza A virus at an MOI of 1. Mitochondrial ROS were measured 12 h after infection. Cells were incubated for 5 min with medium containing 5 μM of MitoSox Red (mitochondrial superoxide indicator, Invitrogen) and were washed with PBS. Cells were then resuspended in cold PBS and mitochondrial ROS was measured via the phycoerythrin (PE) channel using a BD™ LSR-II flow cytometer.
As can be observed in FIG. 2, dTHP1 cells were infected with influenza A virus, incubated with 10 mM CA, IA, or MA, and reactive oxygen species (ROS) were measured by flow cytometry.

[3] = system: Nrf2 signaling (AKR1B10 mRNA); assay: Induction of Nrf2 signaling: AKR1B10 mRNA in HaCaT cells (RT-qPCR); assay type: cell-based, human; conditions: 12 hours treatment
Procedure: Induction was greatest by CA, intermediate by IA and lowest by MA.
The immortalized human keratinocyte cell line HaCaT was grown in RPMI 1640 medium (GIBCO Life Technologies, Karlsruhe, Germany) supplemented with 30% FCS, 100 μg/mL pen/strep, 500 μg/mL gentamycin and 1% each Glutamax and nonessential amino acid solution (NEAA; GIBCO Life Technologies, Karlsruhe, Germany). Cells were treated with the indicated concentrations of itaconate, mesaconate and citraconate for 12 hours. Cells were then washed in buffer, pelleted, and RNA was extracted for subsequent analysis of expression of AKR1B10, which is specifically activated by Nrf2 signaling in this cell line. AKR1B10 mRNA expression was determined by RT-qPCR.
Induction was greatest by CA compared to both IA and MA.

phosphorylated STAT1 = assay: STAT1 phosphorylation immunoblot in influenza A virus-infected A549 and dTHP1 cells; assay type: cell-based, human; conditions: A549 and dTHP1 cells infected with influenza A virus; anti-P-STAT1 immunoblot
Procedure: A549 and dTHP1 cells were infected with influenza A virus and treated with CA, IA or MA.
2×10^5 dTHP1 cells were infected with influenza A virus (H1N1) strain PR8M at a multiplicity of infection of 1. 12 h after infection, cells were washed in buffer, pelleted, and protein extracts resolved by gel electrophoresis and transferred to a nylon membrane. Bands corresponding to phosphorylated Stat1 protein were visualized by enhanced chemiluminescense using specific anti-P-STAT1 primary antibody and […] as secondary antibody.
As can be observed from FIG. 3, A549 and dTHP1 cells were infected with influenza A virus and treated with CA, IA or MA. […] STAT1 phosphorylation is known to be associated with inflammation, and thus CA represents an effective substance in reducing inflammation.

[4] = system: CXCL10 mRNA (encoding IP-10); assay: CXCL10 mRNA expression in influenza A virus-infected dTHP1 cells (RT-qPCR); assay type: cell-based, human; conditions: dTHP1 infected with influenza A virus PR8M, MOI 1, 12 h after infection; increasing concentrations; compared among CA, IA, MA
[5] = molecular target: succinate dehydrogenase (SDH) (Homo sapiens, UniProt P31040); assay: Preliminary data on binding to succinate dehydrogenase
succinate dehydrogenase (SDH), sequence (P31040 43-664): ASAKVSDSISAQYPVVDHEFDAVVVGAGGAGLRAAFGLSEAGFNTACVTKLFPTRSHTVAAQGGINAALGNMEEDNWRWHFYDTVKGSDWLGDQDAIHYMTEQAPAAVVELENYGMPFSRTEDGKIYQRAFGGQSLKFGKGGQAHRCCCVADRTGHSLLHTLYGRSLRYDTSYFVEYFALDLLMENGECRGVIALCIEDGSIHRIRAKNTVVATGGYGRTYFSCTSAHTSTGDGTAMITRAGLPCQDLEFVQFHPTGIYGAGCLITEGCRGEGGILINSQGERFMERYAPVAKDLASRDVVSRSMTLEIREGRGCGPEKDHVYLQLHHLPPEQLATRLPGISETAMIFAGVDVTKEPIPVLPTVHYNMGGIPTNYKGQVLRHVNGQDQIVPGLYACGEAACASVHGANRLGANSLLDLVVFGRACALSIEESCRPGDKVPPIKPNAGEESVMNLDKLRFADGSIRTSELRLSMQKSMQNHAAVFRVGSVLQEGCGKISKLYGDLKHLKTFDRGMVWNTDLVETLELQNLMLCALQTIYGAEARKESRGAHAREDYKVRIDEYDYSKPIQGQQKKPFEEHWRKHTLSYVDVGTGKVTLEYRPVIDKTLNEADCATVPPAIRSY
succinate dehydrogenase (SDH), sequence (P21912 29-280 partner): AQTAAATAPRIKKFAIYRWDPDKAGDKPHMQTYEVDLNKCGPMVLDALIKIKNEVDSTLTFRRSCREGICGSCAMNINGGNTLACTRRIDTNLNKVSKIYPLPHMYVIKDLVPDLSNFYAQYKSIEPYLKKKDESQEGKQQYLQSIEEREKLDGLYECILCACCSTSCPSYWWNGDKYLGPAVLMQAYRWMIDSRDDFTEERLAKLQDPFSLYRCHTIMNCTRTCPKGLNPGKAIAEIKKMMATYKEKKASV
succinate dehydrogenase (SDH), sequence (Q99643 30-169 partner): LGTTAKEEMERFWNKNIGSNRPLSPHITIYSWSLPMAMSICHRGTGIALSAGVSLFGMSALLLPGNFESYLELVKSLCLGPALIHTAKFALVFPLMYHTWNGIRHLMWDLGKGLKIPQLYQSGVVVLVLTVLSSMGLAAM
succinate dehydrogenase (SDH), sequence (O14521 57-159 partner): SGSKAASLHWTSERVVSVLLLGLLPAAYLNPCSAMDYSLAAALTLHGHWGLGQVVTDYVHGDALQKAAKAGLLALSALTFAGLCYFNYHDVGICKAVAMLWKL

[6] = system: influenza A virus (H1N1/34/PR/8M); assay type: cell-based

SMILES: CC1CCC(C(=O)O)=C1C(=O)O (centres unmarked) [3-Methyl-cyclopent-1-ene-1,2-dicarboxylic acid]
- Ki (purified hACOD1): 0.335 µM

SMILES: CC/C(=C/C(=O)O)C(=O)O [(Z)-2-ethylbut-2-enedioic acid]
- Ki (purified hACOD1): 0.235 ± 0.021 µM
- Mitochondrial ROS levels [1]: reduced to levels seen in uninfected WT cells
- Cytotoxicity (ACOD1): remains the same
- Selectivity index (CC50/IC50) (ACOD1): increases
- ACOD1 inhibition in cellular model (ACOD1; dTHP1, LPS/IFNγ 24 hours, intracellular itaconate): increased ACOD1 inhibition

SMILES: O=C(O)C1=C(C(=O)O)CCC1 [cyclopent-1-ene-1,2-dicarboxylic acid, Cyclopent-1-ene-1,2-dicarboxylic acid]
- Ki (purified hACOD1): 39 ± 2 µM

SMILES: C=C(CC(=O)O)C(=O)O [itaconic acid]
- Reduction of reactive oxygen species (ROS) [2]: significant reduction
- Induction of AKR1B10 mRNA (Nrf2 signaling) [3]: intermediate
- STAT1 phosphorylation (phosphorylated STAT1): reduced STAT1 phosphorylation

SMILES: C/C(=C\C(=O)O)C(=O)O [mesaconic acid]
- Induction of AKR1B10 mRNA (Nrf2 signaling) [3]: lowest
- STAT1 phosphorylation (phosphorylated STAT1): reduced STAT1 phosphorylation

SMILES: O=C(O)/C=C(\C(=O)O)c1ccccc1 [2-phenylmaleic acid, 2-Phenylmaleic acid]
- Ki (purified hACOD1): 60 ± 30 µM

SMILES: C/C(=C/C(=O)O)C(=O)O [citraconic acid]
- Reduction of CXCL10 mRNA [4]: greatest
- Direct binding to SDH [5]: does not directly bind SDH
- Reduction of reactive oxygen species (ROS) [2]: significant reduction
- Induction of AKR1B10 mRNA (Nrf2 signaling) [3]: greatest
- Viral RNA (hemagglutinin [HA] mRNA) [6]: not influenced
- Viral titres in culture supernatants [6]: significantly reduced
- STAT1 phosphorylation (phosphorylated STAT1): reduced STAT1 phosphorylation
